How the values were obtained:
[1] = Cyclic voltammetry (CV) screening of oxidation potentials; type: physicochemical; settings: glassy carbon working electrode, 0.2 M lithium perchlorate
Procedure: The oxidation/reduction characteristics of the compounds were investigated. Several compounds, including L-Trp and derivatives, were evaluated for the protection of Trp oxidation in proteins using cyclic voltammetry (CV) and rank ordered based on their oxidation potentials (Table 2). Specifically, the candidate antioxidants were dissolved in deionized water and then added to a 0.2 M lithium perchlorate electrolyte solution. […] Solutions were scanned from −0.10 V to +1.50 V at a scan rate of either 100 or 500 mV/sec. The analytical cell was purged for four minutes with nitrogen before scanning of each antioxidant solution. The input was a linear scan of the potential of a working electrode, and the output was measurement of the resulting current. […] Redox reactions were characterized by sharp increases or decreases in current (peaks). The potential at which an oxidation reaction occurred was referred to as the anodic peak potential (or oxidation potential), and the potential at which a reduction occurred was referred to as is the cathodic peak (or reduction) potential.

mAb1 = mAb1 light stress study, 16 hours; Fab/Fc oxidation by RP-HPLC; type: physicochemical, human; settings: 16 hours of light at 250 W/m^2
Procedure: The fragments were reduced with DTT, and then separated and identified via Liquid Chromatography-Mass Spectrometry (LC-MS). […] Comparison of area integrated under the oxidized and native peaks was used to quantify HC Fab and Fc oxidation. […] By using the papain digest RP-HPLC method in the present study it was possible to investigate Trp residue oxidation by quantifying HC Fab oxidation, and Met residue oxidation by quantifying HC Fc oxidation.
Antioxidants were added at 1 mM. Glass vials containing these formulations were exposed to 250 W/m^2 light in an Atlas SunTest CPS+ Xenon Test Instrument (Chicago, Ill.). Control vials were wrapped in aluminum foil and treated similarly. After light exposure, solutions were prepared for analysis by reverse-phase HPLC as described above.

In the case of `N[C@@H](Cc1c[nH]c2ccccc12)C(=O)O` [L-Trp, L-Tryptophan], the “Oxidation Potential (anodic peak)” value [1] is reported as 0.938 V vs Ag/AgCl, the “Fc oxidation relative to the control level” value (mAb1; 1 mM L-Trp) is reported as 7 times and the “Fab oxidation increase over the control level (mAb1 Ref Mat)” value (mAb1; excipient 1 mM, label mAb1 = No Excipient) is reported as “over 11 fold”.

Source: patent US10653779B2, “Formulations with reduced oxidation” (Genentech, Inc., priority 2013, dated 2020)
